In ChEMBL document CHEMBL4312010, “Synthesis and antibacterial evaluation of novel oxazolidinone derivatives containing a piperidinyl moiety” (Bioorg Med Chem Lett, 2019):
In brackets after ≈: the same amount, converted by molar mass.

Assays:
[1] = tested on: Enterococcus faecium; test: Antibacterial activity agianst vancomycin-resistant Enterococcus faecium; format: functional
[2] = tested on: Enterococcus faecalis; test: Antibacterial activity agianst linezolid-resistant Enterococcus faecalis; format: functional
[3] = tested on: Staphylococcus aureus; test: Antibacterial activity agianst methicillin-resistant Staphylococcus aureus; format: functional
[4] = tested on: Staphylococcus aureus; test: Antibacterial activity agianst methicillin-sensitive Staphylococcus aureus; format: functional
[5] = tested on: Staphylococcus aureus; test: Antibacterial activity agianst Staphylococcus aureus ATCC 29213; format: functional
[6] = Metabolic stability in human liver microsomes assessed as parent compound remaining after 45 mins in presence of NADPH relative to control; format: ADME, Microsome; conditions: read-out: Stability
[7] = tested on: HepG2; test: Cytotoxicity against human HepG2 cells assessed as reduction in cell viability; format: cell-based
[8] = molecular target: T1, MAO-A (amine oxidase [flavin-containing] A) (Homo sapiens, UniProt P21397); test: Inhibition of human MAO-A at 30 uM relative to control
T1 sequence (P21397 whole entry): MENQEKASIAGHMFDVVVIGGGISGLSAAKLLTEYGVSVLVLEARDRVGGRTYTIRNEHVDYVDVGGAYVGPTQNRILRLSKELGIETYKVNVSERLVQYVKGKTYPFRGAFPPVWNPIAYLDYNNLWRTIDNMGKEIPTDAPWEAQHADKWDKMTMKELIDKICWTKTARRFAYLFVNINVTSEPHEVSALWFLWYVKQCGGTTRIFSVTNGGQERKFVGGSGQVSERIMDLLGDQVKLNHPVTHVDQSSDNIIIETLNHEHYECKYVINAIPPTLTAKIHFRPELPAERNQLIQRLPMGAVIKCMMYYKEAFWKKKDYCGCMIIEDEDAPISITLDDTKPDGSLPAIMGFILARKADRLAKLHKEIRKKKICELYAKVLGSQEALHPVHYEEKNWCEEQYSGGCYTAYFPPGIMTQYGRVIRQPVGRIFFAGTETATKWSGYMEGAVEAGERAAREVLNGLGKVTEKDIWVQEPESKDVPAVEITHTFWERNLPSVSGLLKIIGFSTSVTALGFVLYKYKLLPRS

[9] = tested on: Enterococcus faecium; test: Antibacterial activity agianst vancomycin-resistant Enterococcus faecium clinical isolates; format: functional
[10] = tested on: Enterococcus faecalis; test: Antibacterial activity agianst linezolid-resistant Enterococcus faecalis clinical isolates; format: functional
[11] = tested on: Staphylococcus aureus; test: Antibacterial activity agianst methicillin-sensitive Staphylococcus aureus clinical isolates; format: functional
[12] = tested on: Staphylococcus aureus; test: Antibacterial activity agianst methicillin-resistant Staphylococcus aureus clinical isolates; format: functional
[13] = Intrinsic clearance in human liver microsomes; format: ADME, Microsome; conditions: read-out: CLH
[14] = Half life in human liver microsomes; format: ADME, Microsome
[15] = tested on: Enterococcus faecalis; test: Potency index, ratio of linezolid MIC to compound MIC for antibacterial activity against linezolid-resistant Enterococcus faecalis clinical isolates; format: functional
[16] = tested on: Enterococcus faecalis; test: Potency index, ratio of linezolid MIC to compound MIC for antibacterial activity against linezolid-resistant Enterococcus faecalis; format: functional

SMILES	MIC [1] [µg/mL]	MIC [2] [µg/mL]	MIC [3] [µg/mL]	MIC [4] [µg/mL]	MIC [5] [µg/mL]	remaining at 0.75 h [6] [%]	IC50 [7] [µM]	inhibition at 30 µM [8] [%]	MIC [9] [µg/mL]	MIC [10] [µg/mL]	MIC [11] [µg/mL]	MIC [12] [µg/mL]	CLint scaled [13] [mL/min/kg]	half-life [14] [h]	Ratio [15]	Ratio [16]
CC(=O)NC[C@H]1CN(c2ccc(N3CCN(Cc4ccc([N+](=O)[O-])o4)CC3)c(F)c2)C(=O)O1 [RANBEZOLID]	0.5 (≈ 1.08 µM)	0.5 (≈ 1.08 µM)	0.5 (≈ 1.08 µM)	0.5 (≈ 1.08 µM)	0.5 (≈ 1.08 µM)	–	–	–	–	–	–	–	–	–	–	–
CC(=O)NC[C@H]1CN(c2ccc(N3CCC(Nc4ccccc4OC(F)(F)F)CC3)c(F)c2)C(=O)O1	2 (≈ 3.92 µM)	1 (≈ 1.96 µM)	2 (≈ 3.92 µM)	2 (≈ 3.92 µM)	2 (≈ 3.92 µM)	–	–	–	–	–	–	–	–	–	–	–
CC(=O)NC[C@H]1CN(c2ccc(N3CCC(Nc4ccc(Br)cc4F)CC3)c(F)c2)C(=O)O1	2 (≈ 3.82 µM)	1 (≈ 1.91 µM)	2 (≈ 3.82 µM)	2 (≈ 3.82 µM)	2 (≈ 3.82 µM)	–	–	–	–	–	–	–	–	–	–	–
CC(=O)NC[C@H]1CN(c2ccc(N3CCC(N(C)c4ccc(Br)cc4)CC3)c(F)c2)C(=O)O1	1 (≈ 1.93 µM)	1 (≈ 1.93 µM)	2 (≈ 3.85 µM)	2 (≈ 3.85 µM)	2 (≈ 3.85 µM)	–	–	–	–	–	–	–	–	–	–	–
CC(=O)NC[C@H]1CN(c2ccc(N3CCC(Nc4ccc(OC(F)(F)F)cc4)CC3)c(F)c2)C(=O)O1	0.5 (≈ 0.979 µM)	0.5 (≈ 0.979 µM)	1 (≈ 1.96 µM)	1 (≈ 1.96 µM)	1 (≈ 1.96 µM)	–	–	–	–	–	–	–	–	–	–	–
CC(=O)NC[C@H]1CN(c2ccc(N3CCOCC3)c(F)c2)C(=O)O1 [LINEZOLID]	2 (≈ 5.93 µM)	> 16	1 (≈ 2.96 µM)	1 (≈ 2.96 µM)	1 (≈ 2.96 µM)	18	> 64	75	1 to 4 (≈ 2.96 to 11.9 µM)	> 16	1 to 2 (≈ 2.96 to 5.93 µM)	1 to 4 (≈ 2.96 to 11.9 µM)	–	–	–	–
CC(=O)NC[C@H]1CN(c2ccc(N3CCC(Nc4ccc(Br)cc4)CC3)c(F)c2)C(=O)O1	0.25 (≈ 0.495 µM)	0.25 (≈ 0.495 µM)	0.5 (≈ 0.989 µM)	1 (≈ 1.98 µM)	1 (≈ 1.98 µM)	97	> 64	70	0.125 to 0.25 (≈ 0.247 to 0.495 µM)	0.0625 to 0.25 (≈ 0.124 to 0.495 µM)	0.5 to 1 (≈ 0.989 to 1.98 µM)	–	3.46	8.37	64	64
CC(=O)NC[C@H]1CN(c2ccc(N3CCC(Nc4ccccc4)CC3)c(F)c2)C(=O)O1	1 (≈ 2.34 µM)	0.5 (≈ 1.17 µM)	1 (≈ 2.34 µM)	1 (≈ 2.34 µM)	1 (≈ 2.34 µM)	–	–	85	0.25 to 0.5 (≈ 0.586 to 1.17 µM)	0.125 to 0.25 (≈ 0.293 to 0.586 µM)	0.5 to 1 (≈ 1.17 to 2.34 µM)	–	–	–	–	–
CC(=O)NC[C@H]1CN(c2ccc(N3CCN(/N=C/c4ccc([N+](=O)[O-])o4)CC3)c(F)c2)C(=O)O1	1 (≈ 2.11 µM)	–	1 (≈ 2.11 µM)	–	0.5 (≈ 1.05 µM)	–	–	–	–	–	–	–	–	–	–	–
CC(=O)NC[C@H]1CN(c2ccc(N3CCC(Nc4ccc(Cl)cc4)CC3)c(F)c2)C(=O)O1	2 (≈ 4.34 µM)	2 (≈ 4.34 µM)	2 (≈ 4.34 µM)	2 (≈ 4.34 µM)	2 (≈ 4.34 µM)	–	–	–	–	–	–	–	–	–	–	–
CC(=O)NC[C@H]1CN(c2ccc(N3CCC(NCc4ccccc4)CC3)c(F)c2)C(=O)O1	2 (≈ 4.54 µM)	2 (≈ 4.54 µM)	1 (≈ 2.27 µM)	1 (≈ 2.27 µM)	2 (≈ 4.54 µM)	–	–	–	–	–	–	–	–	–	–	–
CC(=O)NC[C@H]1CN(c2ccc(N3CCC(Nc4ccccc4Br)CC3)c(F)c2)C(=O)O1	2 (≈ 3.96 µM)	2 (≈ 3.96 µM)	2 (≈ 3.96 µM)	2 (≈ 3.96 µM)	2 (≈ 3.96 µM)	–	–	–	–	–	–	–	–	–	–	–
CC(=O)NC[C@H]1CN(c2ccc(N3CCC(NCc4ccc(F)cc4)CC3)c(F)c2)C(=O)O1	2 (≈ 4.36 µM)	2 (≈ 4.36 µM)	1 (≈ 2.18 µM)	1 (≈ 2.18 µM)	1 (≈ 2.18 µM)	–	–	–	–	–	–	–	–	–	–	–
CC(=O)NC[C@H]1CN(c2ccc(N3CCC(Nc4cccc(OC(F)(F)F)c4)CC3)c(F)c2)C(=O)O1	2 (≈ 3.92 µM)	2 (≈ 3.92 µM)	2 (≈ 3.92 µM)	2 (≈ 3.92 µM)	2 (≈ 3.92 µM)	–	–	–	–	–	–	–	–	–	–	–
CC(=O)NC[C@H]1CN(c2ccc(N3CCC(Nc4cccc(Br)c4)CC3)c(F)c2)C(=O)O1	2 (≈ 3.96 µM)	2 (≈ 3.96 µM)	2 (≈ 3.96 µM)	2 (≈ 3.96 µM)	2 (≈ 3.96 µM)	–	–	–	–	–	–	–	–	–	–	–
CC(=O)NC[C@H]1CN(c2ccc(N3CCC(Nc4ccc(C(C)C)cc4)CC3)c(F)c2)C(=O)O1	0.5 (≈ 1.07 µM)	0.5 (≈ 1.07 µM)	1 (≈ 2.13 µM)	2 (≈ 4.27 µM)	2 (≈ 4.27 µM)	–	–	–	–	–	–	–	–	–	–	–
CC(=O)NC[C@H]1CN(c2ccc(N3CCC(Nc4ccc(F)cc4)CC3)c(F)c2)C(=O)O1	1 (≈ 2.25 µM)	1 (≈ 2.25 µM)	0.5 (≈ 1.12 µM)	1 (≈ 2.25 µM)	1 (≈ 2.25 µM)	–	–	–	–	–	–	–	–	–	–	–
